The values that follow come from patent US20210198277A1, “AMINE-SUBSTITUTED ARYL OR HETEROARYL COMPOUNDS” (Epizyme, Inc., priority 2016, published 2021).

The assay concerns the target T1, EHMT1 (Homo sapiens, UniProt Q9H9B1).
T1 sequence (Q9H9B1 1-1298): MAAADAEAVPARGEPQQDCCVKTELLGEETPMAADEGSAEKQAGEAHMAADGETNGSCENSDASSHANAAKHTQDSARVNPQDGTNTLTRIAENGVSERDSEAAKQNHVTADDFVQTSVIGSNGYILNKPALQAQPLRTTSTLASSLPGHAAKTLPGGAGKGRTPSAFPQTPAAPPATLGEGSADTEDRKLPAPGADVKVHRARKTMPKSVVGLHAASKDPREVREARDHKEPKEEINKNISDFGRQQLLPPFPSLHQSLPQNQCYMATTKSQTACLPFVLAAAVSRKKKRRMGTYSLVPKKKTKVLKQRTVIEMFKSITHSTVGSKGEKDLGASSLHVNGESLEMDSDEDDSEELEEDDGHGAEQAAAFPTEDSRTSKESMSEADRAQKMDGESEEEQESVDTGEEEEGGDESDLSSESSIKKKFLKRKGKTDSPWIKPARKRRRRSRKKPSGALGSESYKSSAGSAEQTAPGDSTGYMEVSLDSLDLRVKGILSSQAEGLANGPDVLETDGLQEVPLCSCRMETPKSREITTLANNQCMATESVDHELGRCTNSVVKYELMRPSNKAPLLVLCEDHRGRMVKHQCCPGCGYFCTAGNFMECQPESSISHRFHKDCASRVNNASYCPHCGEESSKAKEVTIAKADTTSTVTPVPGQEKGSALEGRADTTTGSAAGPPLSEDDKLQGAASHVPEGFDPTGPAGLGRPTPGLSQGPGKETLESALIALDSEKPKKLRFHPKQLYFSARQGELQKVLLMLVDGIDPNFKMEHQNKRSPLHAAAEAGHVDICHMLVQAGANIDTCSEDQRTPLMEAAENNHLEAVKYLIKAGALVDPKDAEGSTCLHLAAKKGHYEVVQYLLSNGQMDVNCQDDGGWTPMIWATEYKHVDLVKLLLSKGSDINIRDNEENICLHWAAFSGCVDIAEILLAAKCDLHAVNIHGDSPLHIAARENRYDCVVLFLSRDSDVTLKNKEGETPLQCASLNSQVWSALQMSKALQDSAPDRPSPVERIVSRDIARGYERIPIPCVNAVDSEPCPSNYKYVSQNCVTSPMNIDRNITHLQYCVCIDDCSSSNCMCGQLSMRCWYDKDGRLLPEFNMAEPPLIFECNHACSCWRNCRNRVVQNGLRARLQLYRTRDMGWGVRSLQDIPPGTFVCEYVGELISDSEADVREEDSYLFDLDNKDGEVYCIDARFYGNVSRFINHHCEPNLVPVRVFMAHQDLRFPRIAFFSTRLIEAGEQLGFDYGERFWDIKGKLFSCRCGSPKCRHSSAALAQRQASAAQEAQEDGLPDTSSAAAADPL
Kind of assay: EHMT1 enzyme assay on peptide substrate (EHMT1 PEP). It counts as biochemical. The following applies: Table VI; read-out: EHMT1 PEP IC50.
Take `CNc1ccnc(Nc2ccc(OC)c(OC[C@@H](C)CN3CCC3)c2)n1` [Compound 943]: the IC50 was in the range of 1000 to 10000 nM.
Turning to `COc1cnc(Nc2cc(NCC3COC3)cnn2)cc1OCCCN1CCCC1` [Compound 894], the IC50 lay within 100 to 1000 nM.
Consider `CNc1ccnc(Nc2ccc(OC)c(OC[C@@H]3CCN(C4CC4)C3)c2)n1` [Compound 928], for which the IC50 was < 100 nM.
Next, `CNc1ccnc(Nc2ccc(OC)c(OCCC(C)N3CCC3)c2)n1` (centres unmarked) [Compound 1014]: 100 to 1000 nM; `CNc1cc(C)nc(Nc2cnc(OC)c(OC[C@H](O)CN3CCC3)c2)n1` [Compound 963]: < 100 nM.
Take `CCN1CC(COc2cc3nc(NC)nc(C4CCN(C)CC4)c3cc2OC)C1` [Compound 951]: the IC50 is < 100 nM.
Next, `CNc1cc(C)nc(Nc2cc(OCCCN3CCCC3)c3nncn3c2)n1` [Compound 622]: 1000 to 10000 nM; `CNCCCOc1cc(Nc2nccc(NC)n2)cnc1OC` [Compound 917]: 100 to 1000 nM.
Next, `CNc1cc(C2CCN([C@H]3CCOC3)CC2)c2cc(OC)c(OCCCN3CCCC3)cc2n1` [Compound 867]: < 100 nM.
Take `CNc1nc2cc(OCCCN3CCCC3)c(OC)cc2cc1Cl` [Compound 903]: the IC50 was 100 to 1000 nM.
Next, `CNc1cc(C)nc(Nc2ccc(OC)c(CNCCN(C)C)c2)n1` [Compound 990]: < 100 nM; `CCN1CC[C@@H](COc2cc(Nc3nccc(NC)n3)ccc2OC)C1` [Compound 927]: < 100 nM; `COc1cc2c(C3CCN(C)CC3)nc(N3CCCC3)nc2cc1OCCCN1CC(O)C1` [Compound 950]: 100 to 1000 nM.
Next, `CNC(=O)N1CC(CNc2cc(C)nc(Nc3cnc(OC)c(OCCCN4CCCC4)c3)n2)C1` [Compound 888]: 100 to 1000 nM; `COc1cc2c(C3CCN(C)CC3)cc(N3CCCC3)nc2cc1OCCCN1CCCC1` [Compound 625]: < 100 nM.
Next, `CNc1cc(C)nc(Nc2ccc(OC)c(OC[C@H](O)CNC3CCC3)c2)n1` [Compound 962]: 100 to 1000 nM.
In the case of `COc1cc2cc(C#N)c(C)nc2cc1OCCCN1CCCC1` [Compound 895], the IC50 was > 10000 nM.
Next, `COc1ccc(Nc2nc(C)cc(C3CCOCC3)n2)cc1OCCCN1CCCC1` [Compound 870]: > 10000 nM; `CNc1ccnc(Nc2ccc(OC)c(OCC(C)(O)CN3CCC3)c2)n1` (centres unmarked) [Compound 1005]: 1000 to 10000 nM; `CNCCNCc1cc(Nc2nc(C)cc(NC)n2)ccc1OC` [Compound 964]: < 100 nM.
Next, `CNc1cc(C)nc(Nc2ccc(OC)c(C#CCN3CCOCC3)c2)n1` [Compound 904]: 1000 to 10000 nM; `CNc1ccnc(Nc2cnc(OC)c(OC[C@@H]3CCN(C)C3)c2)n1` [Compound 912]: < 100 nM; `CCN1CC(COc2cc(Nc3cccn4cnnc34)ncc2OC)C1` [Compound 620]: > 10000 nM.
Next, `CNC(=O)CCNc1cc(C)nc(Nc2cnc(OC)c(OCCCN3CCCC3)c2)n1` [Compound 887]: 100 to 1000 nM; `CNc1cc(C)nc(Nc2ccc(OC)c(OC[C@H](O)CN3CC(C)C3)c2)n1` [Compound 985]: < 100 nM; `CNc1ccnc(Nc2cnc(OC)c(OCCCN3CCC3)c2)n1` [Compound 914]: < 100 nM.
With `CCNc1cc(C2CCOCC2)c2cc(OC)c(OCCCN3CCCC3)cc2n1` [Compound 865], the IC50 was < 100 nM.
Next, `CNCCC(C)Oc1cc(Nc2nccc(NC)n2)ccc1OC` (centres unmarked) [Compound 1011]: 1000 to 10000 nM; `CNc1nc(C2=CC(C)(C)NC(C)(C)C2)c2cc(OC)c(OCCCN3CCCC3)cc2n1` [Compound 961]: 1000 to 10000 nM; `CNc1cc(C)nc(Nc2cnc(OC)c(OCCCN3CCC3)c2)n1` [Compound 949]: < 100 nM.
Next, `CNc1ccnc(Nc2ccc(OC)c(OC[C@H](O)CN3CCC3)c2)n1` [Compound 908]: < 100 nM.
Next, `CCN1CC[C@@H](COc2cc(Nc3nc(C)cc4[nH]ncc34)ncc2OC)C1` [Compound 947]: < 100 nM; `CNc1cc(C)nc(Nc2ccc(OC)c(OCCCc3nc(Cl)cn3C)c2)n1` [Compound 891]: > 10000 nM; `CNc1ccnc(Nc2ccc(OC)c(OC[C@H]3CN(C)CCO3)c2)n1` [Compound 931]: > 10000 nM.
As for `COc1ccc(Nc2nc(C)cc(NCCS(=O)(=O)N(C)C)n2)cc1OCCCN1CCCC1` [Compound 893], the IC50 was < 100 nM.
Next, `CNc1cc(C)nc(Nc2ccc(OC)c(OC[C@H](O)CN3CC(F)C3)c2)n1` [Compound 986]: 100 to 1000 nM; `CNc1cc(C)nc(Nc2ccc(OC)c(CNCCN3CCC3)c2)n1` [Compound 965]: < 100 nM; `COc1cc2c(C3CCN([C@H]4CCOC4)CC3)cc(C)nc2cc1OCCCN1CCCC1` [Compound 864]: < 100 nM.
As to `CNc1ccnc(Nc2ccc(OC)c(OC[C@@H](O)CN3CCC3)c2)n1` [Compound 907], the IC50 lay within 100 to 1000 nM.
`CNc1cc(C)nc(Nc2c[nH]c(=O)c(OCCCN3CCCC3)c2)n1` [Compound 621]: the IC50 lay in the range of 1000 to 10000 nM.
Next, `CNc1nc2cc(OCCCN3CCCC3)c(OC)cc2cc1F` [Compound 897]: 1000 to 10000 nM; `CNCC(C)COc1cc(Nc2nccc(NC)n2)ccc1OC` (centres unmarked) [Compound 1009]: 1000 to 10000 nM; `COc1cnc(Nc2cccc3[nH]nnc23)cc1OCCCN1CCCC1` [Compound 619]: > 10000 nM.
Next, `CNc1cc(C)nc(Nc2cnc(OC)c(OC[C@@H](O)CN3CCCC3)c2)n1` [Compound 881]: 100 to 1000 nM; `CNc1cc(C)nc(Nc2ccc(CNC(=O)c3ccccc3)c(OC)c2)n1` [Compound 876]: > 10000 nM.
Next, `CNc1ccnc(Nc2ccc(OC)c(OCCC(C)NC)c2)n1` (centres unmarked) [Compound 1016]: 100 to 1000 nM.
On to `CNc1cc(C2CCN([C@@H]3CCOC3)CC2)c2cc(OC)c(OCCCN3CCCC3)cc2n1` [Compound 866], for which the IC50 is < 100 nM.
Consider `CNS(=O)(=O)CCNc1cc(C)nc(Nc2ccc(OC)c(OCCCN3CCCC3)c2)n1` [Compound 892], for which the IC50 was < 100 nM.
For `CNc1ccnc(Nc2ccc(OC)c(OCC(C)CN3CCC3)c2)n1` (centres unmarked) [Compound 1008], the IC50 was < 100 nM.
Regarding `CNc1cc(C)nc(Nc2ccc(OC)c(OCCCc3nc(Cl)c[nH]3)c2)n1` [Compound 890], the IC50 was > 10000 nM.
For the molecule `CNc1ccnc(Nc2ccc(OC)c(OC[C@@H]3CNCCO3)c2)n1` [Compound 938], the 50% inhibitory concentration (IC50) is > 10000 nM.
Turning to `CNC(=O)C1CCN(c2cc3nc(NC)cc(C)c3cc2OC)C1` (centres unmarked) [Compound 900], the IC50 is > 10000 nM.
Next, `CNc1cc(C)nc(Nc2cnc(OC)c(OC[C@H](O)CN3CCCC3)c2)n1` [Compound 882]: 100 to 1000 nM; `CCN1CCC(O)(COc2cc(Nc3nccc(NC)n3)ccc2OC)C1` (centres unmarked) [Compound 1006]: < 100 nM; `CNc1cc(C)nc(Nc2cc(OCCCN3CCCC3)c3ncnn3c2)n1` [Compound 623]: 1000 to 10000 nM.
Next, `CNc1ccnc(Nc2cnc(OC)c(OC[C@@H]3CCN(C4CCC4)C3)n2)n1` [Compound 974]: < 100 nM.
Next, `CNC[C@@H](O)COc1cc(Nc2nccc(NC)n2)cnc1OC` [Compound 918]: 100 to 1000 nM; `CNc1cc(C)nc(Nc2ccc(OC)c(OC[C@@H](O)CN3CCCC3)c2)n1` [Compound 905]: 100 to 1000 nM.
`CNC[C@H](COc1cc(Nc2nccc(NC)n2)ccc1OC)OC` [Compound 921]: the IC50 is > 10000 nM.
Next, `COc1cc2cc(F)c(C)nc2cc1OCCCN1CCCC1` [Compound 896]: > 10000 nM; `COc1ncc(Nc2nc(C)cc(NCC3COC3)n2)cc1OC[C@@H](O)CN1CCCC1` [Compound 883]: > 10000 nM; `CCN1CCO[C@@H](COc2cc(Nc3nccc(NC)n3)ccc2OC)C1` [Compound 932]: 1000 to 10000 nM.
Regarding `CNc1cc(C)nc(Nc2ccc(OC)c(C(=O)NCc3ccccc3)c2)n1` [Compound 871], the IC50 was > 10000 nM.
With `CNc1ccnc(Nc2ccc(OC)c(OC[C@H](C)CN3CCC3)c2)n1` [Compound 945], the IC50 is < 100 nM.
For `CNc1ccnc(Nc2ccc(OC)c(OC[C@@H](CN3CCCC3)OC)c2)n1` [Compound 919], the IC50 lay within 1000 to 10000 nM.
